We go through 14 molecules from patent US20050119289A1 (priority 2002, published 2005).

The subject of series [1] is human colon carcinoma HT29 cell line. The series can be described thus: MTT growth inhibitory assay, HT29. In kind it is cell-based. The conditions noted are these: for HT29 more refractory than the A375 cell line: ratio of IC50 HT29 vs A375; for IC50: Homo sapiens, HT-29, HT29 cells, read-out: IC50 of anti-neoplastic agent used jointly with A3 antagonist. From the text:
(§1) The cells are sub-cultured twice a week.
(Tetrazolium dyes change colour on reduction, which living cells bring about.)

The test system of series [2] is human lung carcinoma SKMES cell line. As to the kind of experiment: MTT growth inhibitory assay, SKMES. In kind it is cell-based. The conditions noted are these: SKMES cells, read-out: IC50 of anti-neoplastic agent used jointly with A3 antagonist.
From the text: as §1

For series [3], the target named is T1, P-gp (Homo sapiens, UniProt P08183). As to the kind of experiment: Rhodamine 123 efflux assay, HeL023 cells. Type of series: cell-based. Set-up: nearly all (100±1%) the cells expressing high level of functional P-gp; endogenous in cells; host or cells: HeL023 human erythroleukemia cells. The settings on record: for inhibition of P-gp activity (in words): Rh123 efflux; for % of Rh123 negative cells: antagonist 10 μM, cells expressing P-gp activity. The method, then:
(§2) 5×10^5 cells from each subline were loaded with 50 ng/ml of rhodamine 123 for 30 minutes at 37° C. in medium. The cells were washed and resuspended in dye-staining agent free medium for 3 hours at 37° C. to allow rhodamine 123 efflux. The cells were then washed twice and the fluorescence of intracellular rhodamine 123 were analysed with Flow cytometer (residual fluorescence FRES). The fluorescence was compared with loaded cells maintained at 4° C. to prevent drug export (maximal fluorescence FMAX). […] Cells from each subline that were not being exposed to rhodamine 123 were used as negative controls.
(§3) Rhodamine 123 (Rh 123) retention, a P-gp functional assay, was studied in all cell lines. This assay was performed by incubating cells with Rh 123 and determining Rh 123 accumulation by measuring its fluorescence. The maximum load of Rh 123 (FMAX) was quantified at the end of treatment harvesting the cells and storing them at 4° C. to prevent any active Rh123 efflux. The P-gp drug efflux was allowed incubating Rh 123-loaded cells in fresh new medium Rh 123-free for 3 hours at 37° C. After this incubation, residual fluorescence (FRES) was measured and compared to FMAx.

In series [4] the target is T1, P-gp. As to the kind of experiment: Rhodamine 123 efflux assay, A375 cells. Type of series: cell-based. Set-up: endogenous in cells. The method, then:
as §2, §3

The next series concerns A375 cells. The series can be described thus: Metabolic (MEK, ERK, p38MAPK) inhibitors on G2/M arrest and apoptosis, flow cytometry. In kind it is cell-based, human. (Flow cytometry measures light scatter and fluorescence of single cells or particles in a stream.)
Another series relates to A375 melanoma cells. As to the kind of experiment: Colony formation assay. In kind it is cell-based, human. The settings on record: for colony formation: 7 days. Here is the method: FIG. 2 illustrates colony formation assay of A375 cells. Cells were treated with different drugs and colonies were counted after 7 days. The values represent the mean±SEM of four independent experiments. D=DMSO (control); T=paclitaxel, 0.75 ng/ml; M=MRE 3008F20, 10 μM; C═CI-IB-MECA, 10 μM; TM=paclitaxel plus MRE 3008F20; TC=paclitaxel plus CI-IB-MECA treated cells. *P<0.01 TM versus T. Analysis was by ANOVA followed by Dunnett's test.;
Control plates received the same volume of DMSO alone. After 7 days of growth at 37° C. in humidified atmosphere containing 5% CO2, the cells were fixed with absolute methanol for 5′ and stained with 1/10 Giemsa/phosphate-buffered saline (PBS) staining solution for 10 minutes. Staining solution was removed and colonies of greater than 30 cells were scored as survivors. For each treatment, six individual wells were scored.

≈ marks a conversion by molar mass, not a printed value. Entries after “also recorded” stand apart in the source; their conditions may differ. Where a name gives a salt, the structure may show the parent alone. Read-outs that look alike come from different tables or passages of the source.

T1 sequence (P08183 whole entry): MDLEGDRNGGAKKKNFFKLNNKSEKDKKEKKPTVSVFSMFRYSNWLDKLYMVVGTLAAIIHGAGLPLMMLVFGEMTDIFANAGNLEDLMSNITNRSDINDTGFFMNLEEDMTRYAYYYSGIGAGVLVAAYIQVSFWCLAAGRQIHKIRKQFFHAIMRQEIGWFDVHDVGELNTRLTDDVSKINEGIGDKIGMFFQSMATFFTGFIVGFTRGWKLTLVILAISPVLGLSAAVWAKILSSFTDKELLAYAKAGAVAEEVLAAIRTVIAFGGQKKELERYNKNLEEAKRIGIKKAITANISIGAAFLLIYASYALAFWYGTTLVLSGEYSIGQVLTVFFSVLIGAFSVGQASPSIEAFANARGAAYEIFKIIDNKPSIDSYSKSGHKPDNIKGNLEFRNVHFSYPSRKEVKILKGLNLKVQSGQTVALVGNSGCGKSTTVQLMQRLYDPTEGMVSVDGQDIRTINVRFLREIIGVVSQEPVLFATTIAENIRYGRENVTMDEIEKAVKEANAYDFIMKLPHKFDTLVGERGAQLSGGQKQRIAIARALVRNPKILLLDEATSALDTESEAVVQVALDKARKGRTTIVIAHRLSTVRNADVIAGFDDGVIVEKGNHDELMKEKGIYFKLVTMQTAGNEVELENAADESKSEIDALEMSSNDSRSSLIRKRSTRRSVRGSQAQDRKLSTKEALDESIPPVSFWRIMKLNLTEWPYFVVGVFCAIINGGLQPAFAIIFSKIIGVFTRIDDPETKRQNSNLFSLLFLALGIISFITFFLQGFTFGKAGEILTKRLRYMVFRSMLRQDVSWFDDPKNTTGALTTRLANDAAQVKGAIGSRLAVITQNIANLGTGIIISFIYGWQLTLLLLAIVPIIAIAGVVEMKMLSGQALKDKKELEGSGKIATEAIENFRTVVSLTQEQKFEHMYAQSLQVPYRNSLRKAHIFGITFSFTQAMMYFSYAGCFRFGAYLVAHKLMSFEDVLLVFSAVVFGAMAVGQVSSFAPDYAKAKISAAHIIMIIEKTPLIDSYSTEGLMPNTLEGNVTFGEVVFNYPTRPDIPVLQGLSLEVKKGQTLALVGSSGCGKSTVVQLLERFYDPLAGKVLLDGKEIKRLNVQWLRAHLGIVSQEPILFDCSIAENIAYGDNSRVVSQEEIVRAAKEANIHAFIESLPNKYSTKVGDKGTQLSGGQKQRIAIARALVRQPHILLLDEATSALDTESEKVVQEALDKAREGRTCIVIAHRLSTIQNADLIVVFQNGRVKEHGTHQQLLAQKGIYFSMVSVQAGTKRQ

As to `O=C1c2c(O)ccc(O)c2C(=O)c2c(NCCNCCO)ccc(NCCNCCO)c21` [mitoxantrone], the “HT29 more refractory than the A375 cell line” value in series [1] is “approximately 30 fold”.

For orientation: IC50 means the concentration that inhibits the measured activity by half. Consider `CC[C@]1(O)C[C@@H]2CN(CCc3c([nH]c4ccccc34)[C@@](C(=O)OC)(c3cc4c(cc3OC)N(C)[C@H]3[C@@](O)(C(=O)OC)[C@H](OC(C)=O)[C@]5(CC)C=CCN6CC[C@]43[C@@H]65)C2)C1` [vinblastine], for which the half-inhibitory concentration (IC50) came to 0.0011 mg/L (≈ 0.00136 µM) in series [2] (with IL-10 0.5 μg/ml), 0.00094 mg/L (≈ 0.00116 µM) in series [2] (with IL-11 0.5 μg/ml) and 0.0013 mg/L (≈ 0.0016 µM) in series [2] (with MRE3008F20 1 μg/ml).

With `COc1cccc2c1C(=O)c1c(O)c3c(c(O)c1C2=O)C[C@@](O)(C(=O)CO)C[C@@H]3O[C@H]1C[C@H](N)[C@H](O)[C@H](C)O1` [doxorubicin], the IC50 is 0.31 mg/L (≈ 0.57 µM) in series [1] (with IL-10 0.5 μg/ml), 0.38 mg/L (≈ 0.699 µM) in series [1] (with IL-11 0.5 μg/ml) and 0.28 mg/L (≈ 0.515 µM) in series [1] (with MRE3008F20 1 μg/ml). For the same molecule, the “HT29 more refractory than the A375 cell line” value in series [1] is recorded as “approximately 30 fold”.

As to `Nc1nc2ccc(Cl)cc2c2nc(-c3ccco3)nn12` [CGS 15943, 5-amino-9-chloro-2-(furyl) 1,2,4-triazolo[1,5-c]quinazoline], the “inhibition of P-gp activity (in words)” value against P-gp [3] is “much lower effect on P-gp activity”.

As for `CCCn1cc2c(nc(NC(=O)Nc3ccc(OC)cc3)n3nc(-c4ccco4)nc23)n1` [MRE3008F20, 5-[[(4-Methoxyphenyl)amino]carbonyl]amino-8-propyl-2-(2-furyl)-pyrazolo[4,3-e]1,2,4-triazolo[1,5-c]pyrimidine], the “P-gp mediated Rh123 transport (in words)” value at P-gp [4] (MRE3008F20 10 μM) was “completely blockade of P-gp mediated Rh123 transport”. Also, at P-gp [3], the “inhibition of P-gp activity (in words)” value was “near total P-gp inhibition; also recorded: strong inhibitors of P-gp activity” and the “% of Rh123 negative cells” value was 0.5 ± 0.3%.

In the case of `Cc1ccc(NC(=O)Nc2nc3nn(C)cc3c3nc(-c4ccco4)nn23)cc1` [MRE 3046F20, 5-N-(4-methylphenyl-carbamoyl)amino-8-methyl-2 (2-furyl)-pyrazolo-[4,3e]-1,2,4-triazolo[1,5-c]pyrimidine], the “inhibition of P-gp activity (in words)” value against P-gp [3] is “strong inhibitors of P-gp activity”.

For `Nc1nc(NCCc2ccc(O)cc2)nc2nc(-c3ccco3)nn12` [ZM 241385, 4-(2-[7-amino-2-(2-furyl)-[1,2,4]triazolo[2,3-a][1,3,5]triazin-5-ylamino]ethyl)phenol], on P-gp [3], the “inhibition of P-gp activity (in words)” value is recorded as “much lower effect on P-gp activity”.

With `CCc1c2c(nc3ccc(OC(=O)N4CCC(N5CCCCC5)CC4)cc13)-c1cc3c(c(=O)n1C2)COC(=O)[C@]3(O)CC` [irinotecan HCL], the IC50 in series [2] (with IL-10 0.5 μg/ml) amounted to 0.67 mg/L; in series [2] (with IL-11 0.5 μg/ml), 0.061 mg/L; in series [2] (with MRE3008F20 1 μg/ml), 0.57 mg/L; in series [1] (with IL-10 0.5 μg/ml) it was 0.77 mg/L; in series [1] (with IL-11 0.5 μg/ml), 0.85 mg/L; in series [1] (with MRE3008F20 1 μg/ml), 0.53 mg/L.

As to `CCN(CC)c1ccc(NC(=O)Nc2nc3nn(C)cc3c3nc(-c4ccco4)nn23)cc1` [IL-10, N-1-(4-diethylamino-phenyl)-N′-5-[8-methyl-2-(2-furyl)-pyrazolo [4,3-e]1,2,4-triazolo[1,5-c]pyrimidine]-urea], on P-gp [3], the “inhibition of P-gp activity (in words)” value is listed as “strong inhibitors of P-gp activity” and the “% of Rh123 negative cells” value stood at 0.4 ± 0.2%.

Turning to `CCCn1cc2c(nc(NC(=O)Nc3ccccc3)n3nc(-c4ccco4)nc23)n1` [MRE 3055F20, 5-N-(4-phenylcarbamoyl)amino-8-propyl-2 (2furyl)-pyrazolo[4,3e]-1,2,4triazolo-[1,5c]pyrimidine], the “inhibition of P-gp activity (in words)” value at P-gp [3] is “strong inhibitors of P-gp activity”.

Turning to `C[S+]([O-])c1ccc(-c2nc(-c3ccncc3)c(-c3ccc(F)cc3)[nH]2)cc1` (centres unmarked) [SB203580], in the series with A375 cells, the “G2/M accumulation rate of inhibitor plus paclitaxel or vindesine respect to paclitaxel or vindesine alone (in words)” value is listed as “did not alter”.

As to `CCCCn1cc2c(nc(NC(=O)Nc3ccccc3)n3nc(-c4ccco4)nc23)n1` [MRE 3062F20, 5-N-(4-phenyl-carbamoyl)amino-8-butyl-2(2furyl)-pyrazolo-[4,3e]-1,2,4triazolo[1,5-c]pyrimidine], on P-gp [3], the “inhibition of P-gp activity (in words)” value was “strong inhibitors of P-gp activity” and the “% of Rh123 negative cells” value amounted to 1.0 ± 0.2%.

For the molecule `CNC(=O)[C@H]1O[C@@H](n2cnc3c(NCc4cccc(I)c4)nc(Cl)nc32)[C@H](O)[C@@H]1O` [CI-IB-MECA], the colony formation increased entry in the series with A375 melanoma cells (CI-IB-MECA 10 μM alone vs DMSO control) is listed as “about 30%”; with A375 melanoma cells (CI-IB-MECA 10 μM combined with paclitaxel 0.75 ng/ml vs paclitaxel alone) it was 32%. Besides, the colony formation with A375 melanoma cells (CI-IB-MECA 10 μM or MRE 3008F20 10 μM combined with paclitaxel 0.75 ng/ml) is reported as 85 % of control; with A375 melanoma cells (agent alone (CI-IB-MECA 10 μM; paclitaxel 0.75 ng/ml; MRE 3008F20 10 μM)), 130 % of control.

`N#CC(=C(/N)Sc1ccccc1N)/C(C#N)=C(\N)Sc1ccccc1N` [U0126]: the “effect on MRE 3008F20 blockade of P-gp (in words)” value on P-gp [4] (U0126 30 μM for 30 minutes, then MRE3008F20 10 μM) was “failed to prevent”. For the same molecule, the “G2/M accumulation rate of inhibitor plus paclitaxel or vindesine respect to paclitaxel or vindesine alone (in words)” value with A375 cells (A375, PD98059 20 μM, U0126 30 μM, SB203580 1 μM) is listed as “did not alter”.
